Where two headings read alike, the source gives them in different places.
Target: T1, truncated human beta-secretase (residues 1-458, His6-tagged at the C-terminus) (Homo sapiens, UniProt P56817)
T1 construct: truncated human beta-secretase (residues 1-458, His6-tagged at the C-terminus); His6 (C); made in house; host or cells: insect cells D. melanogaster S2 (baculovirus expression system (so in the source))
Assay: BACE fluorescence quench assay
Format: biochemical

[1] = in vitro enzyme activity, BACE fluorescence assay, pH 4.5, read-out: IC50

T1 sequence (P56817 22-458): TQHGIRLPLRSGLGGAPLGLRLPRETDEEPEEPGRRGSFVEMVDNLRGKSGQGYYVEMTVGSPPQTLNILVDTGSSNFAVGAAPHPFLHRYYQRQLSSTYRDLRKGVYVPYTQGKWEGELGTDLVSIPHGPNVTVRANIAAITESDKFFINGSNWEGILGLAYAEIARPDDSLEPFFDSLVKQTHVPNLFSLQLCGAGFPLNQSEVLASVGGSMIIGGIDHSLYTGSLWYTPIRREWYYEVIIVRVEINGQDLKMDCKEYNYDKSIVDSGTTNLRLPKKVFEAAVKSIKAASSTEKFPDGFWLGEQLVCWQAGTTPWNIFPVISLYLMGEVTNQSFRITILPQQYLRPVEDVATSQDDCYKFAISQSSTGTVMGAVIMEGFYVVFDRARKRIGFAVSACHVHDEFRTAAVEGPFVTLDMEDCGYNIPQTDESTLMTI

| IC50 [1] [nM] | Structure (SMILES) | IC50 [nM] |
| --- | --- | --- |
|  | CN1C(=O)C2(CC(c3ccccc3)Oc3ccc(-c4ccc(S(=O)(=O)N(C)C)cc4)cc32)N=C1N (stereo not drawn) [Compound 65, 4-(2′-amino-1′-methyl-5′-oxo-2-phenyl-1′,5′-dihydrospiro[chroman-4,4′-imidazole]-6-yl)-N,N-dimethylbenzenesulfonamide] | 10000 to 50000 |
| 1 to 100 | CN1C(=O)[C@@]2(C[C@@H](c3ccccc3)Oc3ccc(-c4cccc(C#N)c4)cc32)N=C1N [Compound 2b] |  |
| 500 to 1000 | N#Cc1cccc(-c2ccc3c(c2)C2(CC(c4ccccc4)O3)N=C(N)N(CC3CCCCC3)C2=O)c1 (stereo not drawn) [Compound 18, 3-(2′-amino-1′-(cyclohexylmethyl)-5′-oxo-2-phenyl-1′,5′-dihydrospiro[chroman-4,4′-imidazole]-6-yl)benzonitrile] |  |
| 100 to 500 | CN1OC2(CC(C3CCOC(C)(C)C3)Oc3ccc(-c4cc(F)cc(F)c4F)cc32)N=C1N (stereo not drawn) [Compound 344] |  |
| 1000 to 5000 | CN1O[C@@]2(C[C@@H]([C@H]3CCCOC3)Oc3ccc(-c4cc(F)cc(F)c4)cc32)N=C1N [Compound 398] |  |
| 1000 to 5000 | CN1OC2(CC(C3CCOC(C)(C)C3)Oc3ccc(-c4cccc(-n5ccnc5)n4)cc32)N=C1N (stereo not drawn) [Compound 400] |  |
| 500 to 1000 | CN1C(=O)C2(CC(c3ccc(F)cc3)Oc3ccc(-c4cccc(C#N)c4)cc32)N=C1N (stereo not drawn) [Compound 19, 3-(2′-amino-2-(4-fluorophenyl)-1′-methyl-5′-oxo-1′,5′-dihydrospiro[chroman-4,4′-imidazole]-6-yl)benzonitrile] |  |
|  | CN1C(=O)C2(CC(c3ccccc3)Oc3ccc(-c4cccn4C(=O)OC(C)(C)C)cc32)N=C1N (stereo not drawn) [Compound 70, tert-butyl 2-(2′-amino-1′-methyl-5′-oxo-2-phenyl-1′,5′-dihydrospiro[chroman-4,4′-imidazole]-6-yl)-1H-pyrrole-1-carboxylate] | 10000 to 50000 |
| 1000 to 5000 | CN1OC2(CC(C3CCCOC3)Oc3ccc(-c4cncnc4)cc32)N=C1N (stereo not drawn) [Compound 98] |  |
| 100 to 500 | CC1CCC2(CC1)CC1(N=C(N)N(C)C1=O)c1cc(-c3cccc(C#N)c3)ccc1O2 (stereo not drawn) [Compound 75] |  |
|  | CN1C(=O)C2(CC(c3ccccc3)Oc3ccc(-c4cccs4)cc32)N=C1N (stereo not drawn) [Compound 36, 2′-amino-1′-methyl-2-phenyl-6-(thiophen-2-yl)spiro[chroman-4,4′-imidazol]-5′(1′H)-one] | 1000 to 5000 |
| 100 to 500 | Cc1cccc(-c2ccc3c(c2)C2(CC4(CCCOC4)O3)N=C(N)N(C)C2=O)c1 (stereo not drawn) [Compound 301] |  |
| 100 to 500 | CN1O[C@@]2(C[C@@H]([C@@H]3CCOC(C)(C)C3)Oc3ccc(-c4cccc(C#N)c4)cc32)N=C1N [Compound 285] |  |
| 500 to 1000 | CN1C(=O)C2(CC(c3ccccc3)Oc3ccc(-c4cc(N)cc(C#N)c4)cc32)N=C1N (stereo not drawn) [Compound 17, 3-amino-5-(2′-amino-1′-methyl-5′-oxo-2-phenyl-1′,5′-dihydrospiro[chroman-4,4′-imidazole]-6-yl)benzonitrile] |  |
| 10000 to 50000 | CN1C(=O)C2(CC3(CCCCC3)Oc3ccc(-c4ccncc4)cc32)N=C1N (stereo not drawn) [Compound 84] |  |
| 500 to 1000 | Cc1ccc(C)c(-c2ccc3c(c2)C2(CC4(CCCOC4)O3)N=C(N)N(C)C2=O)c1 (stereo not drawn) [Compound 364] |  |
| 10000 to 50000 | CN1C(=O)C2(CC(c3ccc(Cl)cc3)Oc3ccc(Br)cc32)N=C1N (stereo not drawn) [Compound 53, 2′-amino-6-bromo-2-(4-chlorophenyl)-1′-methylspiro[chroman-4,4′-imidazol]-5′(1′H)-one] |  |
| 5000 to 10000 | CN1OC2(CC(C3CCOC(C)(C)C3)Oc3ccc(-c4cccc(-n5cccc5)n4)cc32)N=C1N (stereo not drawn) [Compound 445] |  |

| IC50 [1] [nM] | Structure (SMILES) | IC50 [nM] |
| --- | --- | --- |
| 10000 to 50000 | COCCOc1cccc(-c2ccc3c(c2)C2(CC4(CCCOC4)O3)N=C(N)N(C)O2)c1 (stereo not drawn) [Compound 129] |  |
| 500 to 1000 | CN1OC2(C[C@H](C3CCOC(C)(C)C3)Oc3ccc(-c4ccc5cn[nH]c5c4)cc32)N=C1N (stereo partly drawn) [Compound 369] |  |
| 100 to 500 | CN1C(=O)[C@@]2(C[C@@]3(CCCOC3)Oc3ccc(-c4cc(Cl)cc(Cl)c4)cc32)N=C1N [Compound 281] |  |
| 1000 to 5000 | COc1ccc(-c2ccc3c(c2)[C@]2(C[C@]4(CCCOC4)O3)N=C(N)N(C)C2=O)cc1OC [Compound 428] |  |
| 1000 to 5000 | CN1OC2(C[C@H]([C@@H]3CCOC(C)(C)C3)Oc3ccc(-c4cc(F)ccc4F)cc32)N=C1N (stereo partly drawn) [Compound 384] |  |
| 1000 to 5000 | CN1C(=O)C2(CC(c3cccc(Cl)c3)Oc3ccc(Br)cc32)N=C1N (stereo not drawn) [Compound 34, 2′-amino-6-bromo-2-(3-chlorophenyl)-1′-methylspiro[chroman-4,4′-imidazol]-5′(1′H)-one] |  |
| 10000 to 50000 | CCCCNC(=O)c1cccc(-c2ccc3c(c2)[C@]2(C[C@@H](c4ccccc4)O3)N=C(N)N(C)C2=O)c1 [Compound 55b, 3-((2S,4S)-2′-amino-1′-methyl-5′-oxo-2-phenyl-1′,5′-dihydrospiro[chroman-4,4′-imidazole]-6-yl)-N-butylbenzamide] |  |
|  | CC(=O)Nc1cccc(-c2ccc3c(c2)C2(CC(c4ccccc4)O3)N=C(N)N(C)C2=O)c1 (stereo not drawn) [Compound 41, N-(3-(2′-amino-1′-methyl-5′-oxo-2-phenyl-1′,5′-dihydrospiro[chroman-4,4′-imidazole]-6-yl)phenyl)acetamide] | 1000 to 5000 |
| 100 to 500 | CN1C(=O)C2(CC(c3cccc(F)c3F)Oc3ccc(-c4cccc(C#N)c4)cc32)N=C1N (stereo not drawn) [Compound 14, 3-(2′-amino-2-(2,3-difluorophenyl)-1′-methyl-5′-oxo-1′,5′-dihydrospiro[chroman-4,4′-imidazole]-6-yl)benzonitrile] |  |
| 100 to 500 | CN1C(=O)[C@@]2(CC(c3cccs3)Oc3ccc(-c4cccc(C#N)c4)cc32)N=C1N (stereo in doubt) [Compound 8a, 3-((2S,4S)-2′-amino-1′-methyl-5′-oxo-2-(thiophen-2-yl)-1′,5′-dihydrospiro[chroman-4,4′-imidazole]-6-yl)benzonitrile] |  |
| 500 to 1000 | Cc1cccc(-c2ccc3c(c2)C2(CC(C4CCOC(C)(C)C4)O3)N=C(N)N(C)O2)c1F (stereo not drawn) [Compound 363] |  |
|  | CN1C(=O)C2(CC(c3ccccc3)Oc3ccc(-c4cccc(CO)c4)cc32)N=C1N (stereo not drawn) [Compound 33, 2′-amino-6-(3-(hydroxymethyl)phenyl)-1′-methyl-2-phenylspiro[chroman-4,4′-imidazol]-5′(1′H)-one] | 1000 to 5000 |
| 1000 to 5000 | CN1C(=O)C2(CC(C3CCOC(C)(C)C3)Oc3ccc(-c4ccc(F)c(F)c4)cc32)N=C1N (stereo not drawn) [Compound 431] |  |
| 10000 to 50000 | CCN1C(=O)C2(CC(c3ccccc3)Oc3ccc(Br)cc32)N=C1N (stereo not drawn) [Compound 69, 2′-amino-6-bromo-1′-ethyl-2-phenylspiro[chroman-4,4′-imidazol]-5′(1′H)-one] |  |
| 500 to 1000 | CN1OC2(N=C1N)c1cc(-c3cccc(C#N)c3)ccc1OC1(CCCOC1)C2(F)F (stereo not drawn) [Compound 112] |  |
| 100 to 500 | CN1C(=O)C2(CC(C3CCCCC3)Oc3ccc(-c4cccc(C#N)c4)cc32)N=C1N (stereo not drawn) [Compound 3, 3-(2′-amino-2-cyclohexy-1′-methyl-5′-oxo-1′,5′-dihydrospiro[chroman-4,4′-imidazole]-6-yl)benzonitrile] |  |
| 10000 to 50000 | CC(C)=CC(CCO)C1CC2(N=C(N)N(C)O2)c2cc(-c3ccc(F)c(F)c3)ccc2O1 (stereo not drawn) [Compound 456] |  |
| 500 to 1000 | CN1C(=O)C2(CC3(CCCC3)Oc3ccc(-c4cccc(C#N)c4)cc32)N=C1N (stereo not drawn) [Compound 79] |  |

From patent US8450308B2 (Vitae Pharmaceuticals, Inc., priority 2008, dated 2013)
